The assay addresses T1, CauloGA (Protein A-CauloGA fusion) (Caulobacter vibrioides, UniProt Q9A613).
T1 construct: gene CC_2282; putative signal peptide removed; N-terminal Staphylococcus Protein A (synthetic ZZ domain) fusion kept; pEZZ18, E. coli HB101; IgG Sepharose; fusion 96 kDa, CauloGA about 82 kDa
The assay is described as follows: initial rate, glucose release (F-kit D-glucose), nonlinear regression. Format: biochemical. The conditions noted are these: apparent substrate inhibition constant. The source says: initial rate, glucose release (F-kit D-glucose), nonlinear regression on CauloGA (Protein A-CauloGA fusion)

T1 sequence (Q9A613 entry or part of it): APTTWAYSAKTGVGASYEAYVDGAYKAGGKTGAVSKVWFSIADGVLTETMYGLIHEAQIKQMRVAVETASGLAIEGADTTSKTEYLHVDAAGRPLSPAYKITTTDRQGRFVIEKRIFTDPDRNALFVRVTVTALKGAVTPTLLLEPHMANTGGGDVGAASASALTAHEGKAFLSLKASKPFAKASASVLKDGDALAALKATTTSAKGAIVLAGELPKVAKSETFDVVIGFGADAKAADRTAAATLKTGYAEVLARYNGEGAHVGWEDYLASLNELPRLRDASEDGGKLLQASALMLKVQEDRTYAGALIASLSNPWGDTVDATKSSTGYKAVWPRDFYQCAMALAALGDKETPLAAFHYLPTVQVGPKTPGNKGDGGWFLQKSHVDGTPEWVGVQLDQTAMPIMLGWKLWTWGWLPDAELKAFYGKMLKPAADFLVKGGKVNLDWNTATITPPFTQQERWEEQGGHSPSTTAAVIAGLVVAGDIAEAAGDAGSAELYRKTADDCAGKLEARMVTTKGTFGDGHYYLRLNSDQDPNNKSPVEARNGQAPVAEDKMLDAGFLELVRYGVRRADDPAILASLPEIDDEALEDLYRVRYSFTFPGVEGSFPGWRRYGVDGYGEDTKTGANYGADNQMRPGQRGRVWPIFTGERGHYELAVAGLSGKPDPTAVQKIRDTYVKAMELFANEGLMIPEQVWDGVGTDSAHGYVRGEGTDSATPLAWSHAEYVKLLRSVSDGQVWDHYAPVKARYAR

As for `OC[C@H]1O[C@H](O[C@H]2[C@H](O)[C@@H](O)[C@@H](O[C@H]3[C@H](O)[C@@H](O)C(O)O[C@@H]3CO)O[C@@H]2CO)[C@H](O)[C@@H](O)[C@@H]1O` (stereo partly drawn) [Maltotriose], the “Ki^b” value (0-18 mM substrate, pH 5.0, 30°C, text b46 prints approximately 4.2 mM) turned out to be 4490 ± 310 µM.

Take `OC[C@H]1O[C@H](O[C@H]2[C@H](O)[C@@H](O)[C@@H](O[C@H]3[C@H](O)[C@@H](O)[C@@H](O[C@H]4[C@H](O)[C@@H](O)[C@@H](O[C@H]5[C@H](O)[C@@H](O)[C@@H](O[C@H]6[C@H](O)[C@@H](O)[C@@H](O[C@H]7[C@H](O)[C@@H](O)C(O)O[C@@H]7CO)O[C@@H]6CO)O[C@@H]5CO)O[C@@H]4CO)O[C@@H]3CO)O[C@@H]2CO)[C@H](O)[C@@H](O)[C@@H]1O` (stereo partly drawn) [Maltoheptaose]: the “Ki^b” value (0-9 mM substrate, pH 5.0, 30°C) worked out at 1250 ± 250 µM.

In the case of `OC[C@H]1O[C@H](O[C@H]2[C@H](O)[C@@H](O)[C@@H](O[C@H]3[C@H](O)[C@@H](O)[C@@H](O[C@H]4[C@H](O)[C@@H](O)[C@@H](O[C@H]5[C@H](O)[C@@H](O)C(O)O[C@@H]5CO)O[C@@H]4CO)O[C@@H]3CO)O[C@@H]2CO)[C@H](O)[C@@H](O)[C@@H]1O` (stereo partly drawn) [Maltopentaose], the “Ki^b” value (0-9 mM substrate, pH 5.0, 30°C) is 920 ± 40 µM.

As to `OC[C@H]1O[C@H](O[C@H]2[C@H](O)[C@@H](O)[C@@H](O[C@H]3[C@H](O)[C@@H](O)[C@@H](O[C@H]4[C@H](O)[C@@H](O)C(O)O[C@@H]4CO)O[C@@H]3CO)O[C@@H]2CO)[C@H](O)[C@@H](O)[C@@H]1O` (stereo partly drawn) [Maltotetraose], the “Ki^b” value (0-18 mM substrate, pH 5.0, 30°C) came to 1100 ± 60 µM.

As to `OC[C@H]1O[C@H](O[C@H]2[C@H](O)[C@@H](O)C(O)O[C@@H]2CO)[C@H](O)[C@@H](O)[C@@H]1O` (stereo partly drawn) [Maltose], the “Ki^b” value (0-18 mM substrate, 50 mM acetate buffer pH 5.0, 30°C) amounted to 38200 ± 1110 µM.

As to `OC[C@H]1O[C@H](O[C@H]2[C@H](O)[C@@H](O)[C@@H](O[C@H]3[C@H](O)[C@@H](O)[C@@H](O[C@H]4[C@H](O)[C@@H](O)[C@@H](O[C@H]5[C@H](O)[C@@H](O)[C@@H](O[C@H]6[C@H](O)[C@@H](O)C(O)O[C@@H]6CO)O[C@@H]5CO)O[C@@H]4CO)O[C@@H]3CO)O[C@@H]2CO)[C@H](O)[C@@H](O)[C@@H]1O` (stereo partly drawn) [Maltohexaose], the “Ki^b” value (0-9 mM substrate, pH 5.0, 30°C) is 1050 ± 80 µM.

(Values after article PMC3917699, “Glucoamylase of Caulobacter crescentus CB15: cloning and expression in Escherichia coli and functional identification” (AMB Express, 2014).)
